Assay [1] addresses T1, specific uterine reception of progesterone (progesterone receptor, uterus cytosol) (Oryctolagus cuniculus, UniProt P06186).
T1 construct: the uterus was removed and homogenized in a buffered solution; from tissue; host or cells: uterus cytosol (105,000 g supernatant) of estradiol-primed immature rabbits
T1 sequence (P06186 1-930): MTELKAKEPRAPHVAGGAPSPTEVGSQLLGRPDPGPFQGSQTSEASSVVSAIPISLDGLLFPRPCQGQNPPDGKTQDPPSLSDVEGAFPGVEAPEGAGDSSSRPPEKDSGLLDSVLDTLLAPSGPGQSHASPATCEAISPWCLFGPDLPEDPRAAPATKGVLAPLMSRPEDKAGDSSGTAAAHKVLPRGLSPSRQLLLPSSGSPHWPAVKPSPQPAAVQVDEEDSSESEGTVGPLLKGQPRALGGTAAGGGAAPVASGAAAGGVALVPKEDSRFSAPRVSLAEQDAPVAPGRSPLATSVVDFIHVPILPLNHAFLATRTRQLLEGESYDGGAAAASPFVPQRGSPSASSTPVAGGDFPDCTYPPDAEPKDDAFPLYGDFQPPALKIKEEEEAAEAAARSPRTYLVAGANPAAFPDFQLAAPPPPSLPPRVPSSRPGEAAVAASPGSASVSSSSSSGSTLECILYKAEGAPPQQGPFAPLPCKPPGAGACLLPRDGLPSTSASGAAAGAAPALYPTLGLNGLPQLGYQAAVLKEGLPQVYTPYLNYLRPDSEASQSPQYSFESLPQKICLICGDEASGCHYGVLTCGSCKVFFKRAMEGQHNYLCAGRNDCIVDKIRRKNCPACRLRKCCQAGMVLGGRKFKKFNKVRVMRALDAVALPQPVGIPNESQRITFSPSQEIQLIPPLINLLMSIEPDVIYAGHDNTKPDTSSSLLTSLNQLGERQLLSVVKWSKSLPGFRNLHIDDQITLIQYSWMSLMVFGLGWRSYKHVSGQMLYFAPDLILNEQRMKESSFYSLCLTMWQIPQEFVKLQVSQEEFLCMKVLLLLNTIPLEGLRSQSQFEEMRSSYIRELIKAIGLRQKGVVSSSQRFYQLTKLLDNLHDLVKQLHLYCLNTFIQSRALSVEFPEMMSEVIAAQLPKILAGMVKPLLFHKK
As to the kind of experiment: Progestomimetic activity: hormonal receptor method, displacement of tritiated 17,21-dimethyl-19-nor-Δ4,9-pregnadiene-3,20-dione in uterus cytosol. As to conditions: for affinity for uterine progesterone receptor compared with progesterone (in words): conclusion from Table VI; for ARL (relative affinity of the test product): progesterone = 100, from CP and CX (concentrations inhibiting by 50% the fixation of tritiated product R), immature rabbit uterus cytosol, 0° C., 2 hours. Type of assay: binding, rabbit. The protocol:
The progestomimetic activity was determined for 11β-vinyl-17α-methyl-17β-acetyl-Δ^4,9 -estradiene-3-one [product A], 11β-vinyl-17α-acetoxy-17β-acetyl-Δ^4,9 -estradiene-3-one [product B] and 11β-vinyl-17α-ethynyl-Δ^4,9 -estradiene-17α-ol-3-one [product C] was determined by the hormonal receptor method of Raynaud et al [J. Ster. Biochem., Vol. 6 (1975), p-615-622 and Physiology and Genetics of Reproduction, part A (1975), p. 143-160]. Immature rabbits received subcutaneously 25γ of estradiol and 5 days later, the animals were sacrificed and the uterus was removed and homogenized in a buffered solution of 10 mm of tromethamine, 0.25 M of saccharose and a pH of 7.4 with hydrochloric acid. The homogenate was centrifuged at 105,000 g per hour and the surnageant or cytosol was adjusted to a dilution of 1/50 (weight/volume). […] The radioactivity of the tritiated product R was determined after 2 hours by the technique of adsorption on carbon-dextran (1.25-0.625%). The curves representing the percentage of tritiated product R as a function of the log of the concentration, of cold product R, of progesterone or the test products and the I50 straight line parallel to the axis of the abcisses and ordinates were plotted. [formula] B/T max. is the percentage of tied tritiated product R when the product is not added and B/T min. is the percentage of tied tritiated product R when the maximum amount of cold product R is added. The intersections of these I50 straight lines and the curves permit the determination of the values: CP - concentration of cold progesterone which inhibits by 50% the fixation of the tritiated product R and CX-concentration of test product which inhibits by 50% the fixation of tritiated product R. The relative affinity of the test product (ARL) was determined by the formula [formula] and the results are reported in Table VI.

Assay [2] concerns the target T2, prostatic androgenic reception of testosterone (androgen receptor, prostate cytosol) (Rattus norvegicus, UniProt P15207).
T2 construct: The prostate was recovered from male rats castrated 24 hours earlier and was homogenized; from tissue; host or cells: prostate cytosol (105,000 g supernatant) of male rats castrated 24 hours earlier
T2 sequence (P15207 1-902): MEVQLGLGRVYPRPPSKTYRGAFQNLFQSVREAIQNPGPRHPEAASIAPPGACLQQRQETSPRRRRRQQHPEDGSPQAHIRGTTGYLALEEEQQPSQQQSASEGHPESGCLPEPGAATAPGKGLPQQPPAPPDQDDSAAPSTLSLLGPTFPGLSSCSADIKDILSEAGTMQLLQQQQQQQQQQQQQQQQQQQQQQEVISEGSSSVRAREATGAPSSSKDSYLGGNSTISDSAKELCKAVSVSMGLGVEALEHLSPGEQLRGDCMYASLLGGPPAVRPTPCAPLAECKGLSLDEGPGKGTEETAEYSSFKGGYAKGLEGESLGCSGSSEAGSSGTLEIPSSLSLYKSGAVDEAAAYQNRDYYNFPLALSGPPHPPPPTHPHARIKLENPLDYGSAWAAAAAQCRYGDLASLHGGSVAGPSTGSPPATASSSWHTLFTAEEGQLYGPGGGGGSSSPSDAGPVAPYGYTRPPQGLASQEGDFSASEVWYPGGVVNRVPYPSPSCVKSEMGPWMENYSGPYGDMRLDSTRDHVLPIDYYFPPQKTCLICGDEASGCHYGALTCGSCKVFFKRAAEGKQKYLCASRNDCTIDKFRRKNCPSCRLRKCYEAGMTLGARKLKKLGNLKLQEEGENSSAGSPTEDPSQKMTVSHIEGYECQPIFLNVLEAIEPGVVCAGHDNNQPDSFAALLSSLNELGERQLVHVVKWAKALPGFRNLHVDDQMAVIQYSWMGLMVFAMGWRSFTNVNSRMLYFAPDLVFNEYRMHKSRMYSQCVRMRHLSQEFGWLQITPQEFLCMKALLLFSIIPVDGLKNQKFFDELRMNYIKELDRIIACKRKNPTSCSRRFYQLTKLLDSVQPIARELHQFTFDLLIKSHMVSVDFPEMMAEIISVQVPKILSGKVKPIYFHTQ
Briefly: Androgenic activity: hormonal receptor method, displacement of tritiated 17α-methyl-Δ4,9,11-estratriene-17β-ol-3-one in prostate cytosol. In kind it is binding. The protocol: This test also used the method of Raynaud et al discussed above. The prostate was recovered from male rats castrated 24 hours earlier and was homogenized in a buffer containing 10 mm of tromethamine and 0.25 M of saccharose and sufficient hydrochloric acid for a pH of 7.4. The homogenate was centrifuged at 105,000 g for one hour and the surnageant liquid or cytosol was adjusted to a dilution of 1/5 (weight/volume).
The radioactivity of the tied tritiated product was determined after 2 hours by absorption technique on carbon-dextran (1.25%-0.625%). […] [formula] were ploted. B/T max. is the percentage of tied tritiated product R when the product is not added and B/T min. is the percentage of tied tritiated product R when the maximum amount of cold product R is added.

The values below come from patent US4233296A, “11β-Substituted-Δ^4,9 -estradienes” (Roussel Uclaf, priority 1977, dated 1980).

For `C=C[C@H]1C[C@@]2(C)[C@@H](CC[C@]2(C)C(C)=O)[C@@H]2CCC3=CC(=O)CCC3=C21` [Product A, 11β-vinyl-17α-methyl-17β-acetyl-Δ^4,9-estradiene-3-one], in assay [1], the “affinity for uterine progesterone receptor compared with progesterone (in words)” value (from here on “affinity … compared with progesterone (in words)”) is given as “greater affinity for specific uterine reception of progesterone than progesterone” and the “ARL (relative affinity of the test product)” value came out at 160.

In the case of `C=C[C@H]1C[C@@]2(C)[C@@H](CC[C@]2(OC(C)=O)C(C)=O)[C@@H]2CCC3=CC(=O)CCC3=C21` [Product B, 11β-vinyl-17α-acetoxy-17β-acetyl-Δ^4,9-estradiene-3-one], in assay [1], the “affinity … compared with progesterone (in words)” value was “greater affinity for specific uterine reception of progesterone than progesterone” and the “ARL (relative affinity of the test product)” value stood at 120.

Take `C#C[C@]1(O)CC[C@H]2[C@@H]3CCC4=CC(=O)CCC4=C3[C@@H](C=C)C[C@@]21C` [Product C, 11β-vinyl-17α-ethynyl-Δ^4,9-estradiene-17β-ol-3-one]: in assay [1], the “affinity … compared with progesterone (in words)” value is reported as “greater affinity for specific uterine reception of progesterone than progesterone” and the “ARL (relative affinity of the test product)” value was determined as 150.

`C=C(C)[C@H]1C[C@@]2(C)[C@@H](CC[C@]2(C)O)[C@@H]2CCC3=CC(=O)CCC3=C12` [Product D, 11β-isopropenyl-17α-methyl-Δ^4,9-estradiene-17β-ol-3-one]: the “affinity for prostatic androgen receptor compared with testosterone (in words)” value in assay [2] (conclusion from Table VII) is “affinity on the order of that of testosterone”. The “ARL (relative affinity of the test product)” value in assay [2] (testosterone = 100, from CT and CX (concentrations inhibiting by 50% the fixation of tritiated product R), castrated rat prostate cytosol, 0° C., 2 hours) is on record as 80.
